ChEMBL document CHEMBL4831545, “Hormesis Effect of Berberine against Klebsiella pneumoniae Is Mediated by Up-Regulation of the Efflux Pump KmrA” (J Nat Prod, 2021)

Experiments:
[1] = tested on: Klebsiella pneumoniae; test: Hormesis activity against Klebsiella pneumoniae assessed as increase in antibiotic MIC by measuring ciprofloxacin MIC at 3 ug/ml incubated for 12 hrs by OD600 based analysis (reference value: 0.0390625 ug/ml); format: ADME, organism-based; conditions: in vivo, dose 3 µg/ml
[2] = tested on: Enterobacter cloacae; test: Hormesis activity against Enterobacter cloacae assessed as promotion of bacterial growth up to 25 ug/ml measured for 24 hrs in presence of 8 ug/ml tetracycline by OD600 based analysis; format: organism-based; conditions: in vivo, dose <=25 µg/ml
[3] = tested on: Acinetobacter baumannii; test: Hormesis activity against overnight-compound treated Acinetobacter baumannii assessed as increase in antibiotic MIC by measuring hygromycinMIC at 3 ug/ml incubated for 12 hrs by OD600 based analysis (reference value: 125 ug/ml); format: ADME, organism-based; conditions: in vivo, dose 3 µg/ml
[4] = tested on: Enterobacter cloacae; test: Hormesis activity against Enterobacter cloacae assessed as increase in antibiotic MIC by measuring meropenem MIC at 3 ug/ml incubated for 12 hrs by OD600 based analysis (reference value: 0.1953 ug/ml); format: ADME, organism-based; conditions: in vivo, dose 3 µg/ml
[5] = tested on: Klebsiella pneumoniae; test: Hormesis activity against Klebsiella pneumoniae deficient in KmrA gene expression assessed as increase in antibiotic MIC by measuring atreonamMIC at 3 ug/ml incubated for 12 hrs by OD600 based analysis (reference value: 1.5625 ug/ml); format: ADME, organism-based; conditions: in vivo, dose 3 µg/ml
[6] = tested on: Acinetobacter baumannii; test: Hormesis activity against Acinetobacter baumannii assessed as increase in antibiotic MIC by measuring atreonamMIC at 3 ug/ml incubated for 12 hrs by OD600 based analysis (reference value: 6.25 ug/ml); format: ADME, organism-based; conditions: in vivo, dose 3 µg/ml
[7] = tested on: Acinetobacter baumannii; test: Hormesis activity against overnight-compound treated Acinetobacter baumannii assessed as increase in antibiotic MIC by measuring atreonamMIC at 3 ug/ml incubated for 12 hrs by OD600 based analysis (reference value: 6.25 ug/ml); format: ADME, organism-based; conditions: in vivo, dose 3 µg/ml
[8] = tested on: Enterobacter cloacae; test: Hormesis activity against overnight compound-treated Enterobacter cloacae assessed as increase in antibiotic MIC by measuring hygromycinMIC at 3 ug/ml incubated for 12 hrs by OD600 based analysis (reference value: 25 ug/ml); format: ADME, organism-based; conditions: in vivo, dose 3 µg/ml
[9] = tested on: Enterobacter cloacae; test: Hormesis activity against overnight compound-treated Enterobacter cloacae assessed as increase in antibiotic MIC by measuring rifampicin MIC at 3 ug/ml incubated for 12 hrs by OD600 based analysis (reference value: 25 ug/ml); format: ADME, organism-based; conditions: in vivo, dose 3 µg/ml
[10] = tested on: Acinetobacter baumannii; test: Hormesis activity against overnight-compound treated Acinetobacter baumannii assessed as increase in antibiotic MIC by measuring tetracycline MIC at 3 ug/ml incubated for 12 hrs by OD600 based analysis (reference value: 240 ug/ml); format: ADME, organism-based; conditions: in vivo, dose 3 µg/ml
[11] = tested on: Acinetobacter baumannii; test: Hormesis activity against overnight-compound treated Acinetobacter baumannii assessed as increase in antibiotic MIC by measuring rifampicin MIC at 3 ug/ml incubated for 12 hrs by OD600 based analysis (reference value: 1.5625 ug/ml); format: ADME, organism-based; conditions: in vivo, dose 3 µg/ml
[12] = tested on: Enterobacter cloacae; test: Hormesis activity against Enterobacter cloacae assessed as increase in antibiotic MIC by measuring atreonamMIC at 3 ug/ml incubated for 12 hrs by OD600 based analysis (reference value: 3.125 ug/ml); format: ADME, organism-based; conditions: in vivo, dose 3 µg/ml
[13] = tested on: Acinetobacter baumannii; test: Hormesis activity against overnight-compound treated Acinetobacter baumannii assessed as increase in antibiotic MIC by measuring azithromycin MIC at 3 ug/ml incubated for 12 hrs by OD600 based analysis (reference value: 200 ug/ml); format: ADME, organism-based; conditions: in vivo, dose 3 µg/ml
[14] = tested on: Klebsiella pneumoniae; test: Hormesis activity against overnight compound-treated Klebsiella pneumoniae deficient in KmrA gene expression assessed as increase in antibiotic MIC by measuring hygromycinMIC at 3 ug/ml incubated for 12 hrs by OD600 based analysis (reference value: 12.5 ug/ml); format: ADME, organism-based; conditions: in vivo, dose 3 µg/ml
[15] = tested on: Klebsiella pneumoniae; test: Hormesis activity against Klebsiella pneumoniae deficient in KmrA gene expression assessed as increase in antibiotic MIC by measuring ampicillin MIC at 3 ug/ml incubated for 12 hrs by OD600 based analysis (reference value: 12.5 ug/ml); format: ADME, organism-based; conditions: in vivo, dose 3 µg/ml
[16] = tested on: Klebsiella pneumoniae; test: Hormesis activity against overnight compound-treated Klebsiella pneumoniae deficient in KmrA gene expression assessed as increase in antibiotic MIC by measuring streptomycin MIC at 3 ug/ml incubated for 12 hrs by OD600 based analysis (reference value: 0.78125 ug/ml); format: ADME, organism-based; conditions: in vivo, dose 3 µg/ml
[17] = tested on: Klebsiella pneumoniae; test: Hormesis activity against overnight compound-treated Klebsiella pneumoniae deficient in KmrA gene expression assessed as increase in antibiotic MIC by measuring tetracycline MIC at 3 ug/ml incubated for 12 hrs by OD600 based analysis (reference value: 6 ug/ml); format: ADME, organism-based; conditions: in vivo, dose 3 µg/ml
[18] = tested on: Enterobacter cloacae; test: Hormesis activity against Enterobacter cloacae assessed as increase in antibiotic MIC by measuring streptomycin MIC at 3 ug/ml incubated for 12 hrs by OD600 based analysis (reference value: 12.5 ug/ml); format: ADME, organism-based; conditions: in vivo, dose 3 µg/ml
[19] = tested on: Klebsiella pneumoniae; test: Hormesis activity against overnight compound-treated Klebsiella pneumoniae assessed as increase in antibiotic MIC by measuring ciprofloxacin MIC at 3 ug/ml incubated for 12 hrs by OD600 based analysis (reference value: 0.0390625 ug/ml); format: ADME, organism-based; conditions: in vivo, dose 3 µg/ml
[20] = tested on: Klebsiella pneumoniae; test: Hormesis activity against Klebsiella pneumoniae assessed as increase in antibiotic MIC by measuring hygromycinMIC at 3 ug/ml incubated for 12 hrs by OD600 based analysis (reference value: 12.5 ug/ml); format: ADME, organism-based; conditions: in vivo, dose 3 µg/ml
[21] = tested on: Enterobacter cloacae; test: Hormesis activity against overnight compound-treated Enterobacter cloacae assessed as increase in antibiotic MIC by measuring ampicillin MIC at 3 ug/ml incubated for 12 hrs by OD600 based analysis (reference value: 25 ug/ml); format: ADME, organism-based; conditions: in vivo, dose 3 µg/ml
[22] = Upregulation of efflux pump regulator promoter activity in Klebsiella pneumoniae assessed as increase in beta-galactosidase activity at 3 to 50 ug/ml by LacZ based OD600 analysis; format: ADME; conditions: dose 3-50 µg/ml
[23] = tested on: Enterobacter cloacae; test: Hormesis activity against overnight compound-treated Enterobacter cloacae assessed as increase in antibiotic MIC by measuring cefotaxime MIC at 3 ug/ml incubated for 12 hrs by OD600 based analysis (reference value: 1.5625 ug/ml); format: ADME, organism-based; conditions: in vivo, dose 3 µg/ml
[24] = tested on: Klebsiella pneumoniae; test: Hormesis activity against Klebsiella pneumonia assessed as promotion of delayed bacterial growth at 25 to 50 ug/ml measured for 24 hrs in presence of 1 ug/ml tetracycline by OD600 based analysis; format: organism-based; conditions: in vivo, dose 25-50 µg/ml
[25] = tested on: Klebsiella pneumoniae; test: Hormesis activity against Klebsiella pneumoniae deficient in KmrA gene expression assessed as increase in antibiotic MIC by measuring meropenem MIC at 3 ug/ml incubated for 12 hrs by OD600 based analysis (reference value: 0.39625 ug/ml); format: ADME, organism-based; conditions: in vivo, dose 3 µg/ml

- MIC [1]: 0.07812 µg/mL
- MIC [3]: 250 µg/mL
- MIC [4]: 0.1953 µg/mL
- MIC [5]: 1.5625 µg/mL
- MIC [6]: 6.25 µg/mL
- MIC [7]: 6.25 µg/mL
- MIC [8]: 25 µg/mL
- MIC [9]: 50 µg/mL
- MIC [10]: 360 µg/mL
- MIC [11]: 6.25 µg/mL
- MIC [12]: 3.125 µg/mL
- MIC [13]: 400 µg/mL
- MIC [14]: 12.5 µg/mL
- MIC [15]: 12.5 µg/mL
- MIC [16]: 1.5625 µg/mL
- MIC [17]: 6 µg/mL
- MIC [18]: 12.5 µg/mL
- MIC [19]: 0.1562 µg/mL
- MIC [20]: 12.5 µg/mL
- MIC [21]: 50 µg/mL
- MIC [23]: 3.125 µg/mL
- MIC [25]: 0.3962 µg/mL
SMILES: COc1ccc2cc3[n+](cc2c1OC)CCc1cc2c(cc1-3)OCO2 [BERBERINE]
- Activity [2]: Toxic
- Activity [22]: Toxic
- Activity [24]: Non-Toxic
